{"source": "patent US20230348531A1", "about": "“ISOLATION AND PURIFICATION OF BACTERIOCIN PRODUCED BY LACTOBACILLUS SAKEI AND ANTIBACTERIAL USE THEREOF AND LACTIC ACID BACTERIA USED” (Zhejiang Gongshang University, priority 2022, published 2023)", "origin": "cited, not measured here", "tested_on": "gram-negative bacteria such as Escherichia coli", "conditions": "background statement", "data": [{"substance": "Nisin", "values": [{"measurement": "inhibitory effect on gram-negative bacteria", "result": "no inhibitory effect"}]}]}
